Measured values taken from ChEMBL document CHEMBL5303573, “Mapping human microbiome drug metabolism by gut bacteria and their genes” (Nature, 2019).

Key:
[1] = bacteroides fragilis, 12 h, 2 µM
Description: The drug is tested on Bacteroides fragilis strain: 3397 (T10) for biotransformation. The drug concentrations were measured before and after a 12-h incubation by liquid-chromatography-coupled mass spectrometry (LC–MS)

[2] = The drug is tested on Enterobacter cancerogenus strain: ATCC35316 for biotransformation. The drug concentrations were measured before and after a 12-h incubation by liquid-chromatography-coupled mass spectrometry (LC–MS); details: 2 µM
[3] = bacteroides thetaiotaomicron, 12 h, 2 µM
Description: The drug is tested on Bacteroides thetaiotaomicron strain: 7330 for biotransformation. The drug concentrations were measured before and after a 12-h incubation by liquid-chromatography-coupled mass spectrometry (LC–MS)

[4] = The drug is tested on Anaerotruncus colihominis strain: DSM17241 for biotransformation. The drug concentrations were measured before and after a 12-h incubation by liquid-chromatography-coupled mass spectrometry (LC–MS); details: 2 µM
[5] = bacteroides fragilis, 12 h, 2 µM; remark: listed apart in the source
Description: The drug is tested on Bacteroides fragilis strain: NCTC 9343 for biotransformation. The drug concentrations were measured before and after a 12-h incubation by liquid-chromatography-coupled mass spectrometry (LC–MS)

[6] = The drug is tested on Bifidobacterium breve strain: DSM20213 for biotransformation. The drug concentrations were measured before and after a 12-h incubation by liquid-chromatography-coupled mass spectrometry (LC–MS); details: 2 µM
[7] = The drug is tested on Collinsella aerofaciens strain: ATCC25986 for biotransformation. The drug concentrations were measured before and after a 12-h incubation by liquid-chromatography-coupled mass spectrometry (LC–MS); details: 2 µM
[8] = The drug is tested on Clostridium scindens strain: ATCC35704 for biotransformation. The drug concentrations were measured before and after a 12-h incubation by liquid-chromatography-coupled mass spectrometry (LC–MS); details: 2 µM
[9] = bacteroides thetaiotaomicron, 12 h, 2 µM; remark: listed apart in the source
Description: The drug is tested on Bacteroides thetaiotaomicron strain: VPI-5482 for biotransformation. The drug concentrations were measured before and after a 12-h incubation by liquid-chromatography-coupled mass spectrometry (LC–MS)

[10] = roseburia intestinalis, 12 h, 2 µM
Description: The drug is tested on Roseburia intestinalis strain: L1-82 for biotransformation. The drug concentrations were measured before and after a 12-h incubation by liquid-chromatography-coupled mass spectrometry (LC–MS)

[11] = The drug is tested on Bacteroides fragilis strain: HMW610 for biotransformation. The drug concentrations were measured before and after a 12-h incubation by liquid-chromatography-coupled mass spectrometry (LC–MS); details: 2 µM
[12] = segatella copri, 12 h, 2 µM
Description: The drug is tested on Prevotella copri strain: DSM18205 for biotransformation. The drug concentrations were measured before and after a 12-h incubation by liquid-chromatography-coupled mass spectrometry (LC–MS)

[13] = The drug is tested on Bacteroides cellulosilyticus strain: DSM14838 for biotransformation. The drug concentrations were measured before and after a 12-h incubation by liquid-chromatography-coupled mass spectrometry (LC–MS); details: 2 µM
[14] = The drug is tested on Alistipes indistinctus strain: DSM22520 for biotransformation. The drug concentrations were measured before and after a 12-h incubation by liquid-chromatography-coupled mass spectrometry (LC–MS); details: 2 µM
[15] = The drug is tested on Edwardsiella tarda strain: ATCC23685 for biotransformation. The drug concentrations were measured before and after a 12-h incubation by liquid-chromatography-coupled mass spectrometry (LC–MS); details: 2 µM
[16] = bifidobacterium adolescentis, 12 h, 2 µM
Description: The drug is tested on Bifidobacterium adolescentis strain: ATCC 15703 for biotransformation. The drug concentrations were measured before and after a 12-h incubation by liquid-chromatography-coupled mass spectrometry (LC–MS)

[17] = The drug is tested on Enterococcus faecalis strain: V583 for biotransformation. The drug concentrations were measured before and after a 12-h incubation by liquid-chromatography-coupled mass spectrometry (LC–MS); details: 2 µM
[18] = anaerostipes sp., 12 h, 2 µM
Description: The drug is tested on Anaerostipes sp. strain: fecal isolate for biotransformation. The drug concentrations were measured before and after a 12-h incubation by liquid-chromatography-coupled mass spectrometry (LC–MS)

[19] = limosilactobacillus reuteri cf48-3a, 12 h, 2 µM
Description: The drug is tested on Lactobacillus reuteri CF48-3A strain: BEI HM-102 for biotransformation. The drug concentrations were measured before and after a 12-h incubation by liquid-chromatography-coupled mass spectrometry (LC–MS)

[20] = The drug is tested on Clostridium sporogenes strain: ATCC15579 for biotransformation. The drug concentrations were measured before and after a 12-h incubation by liquid-chromatography-coupled mass spectrometry (LC–MS); details: 2 µM

Compound | Bacterial Biotransformation [1] | Bacterial Biotransformation [2] | Bacterial Biotransformation [3] | Bacterial Biotransformation [4] | Bacterial Biotransformation [5] | Bacterial Biotransformation [6] | Bacterial Biotransformation [7] | Bacterial Biotransformation [8] | Bacterial Biotransformation [9] | Bacterial Biotransformation [10] | Bacterial Biotransformation [11] | Bacterial Biotransformation [12] | Bacterial Biotransformation [13] | Bacterial Biotransformation [14] | Bacterial Biotransformation [15] | Bacterial Biotransformation [16] | Bacterial Biotransformation [17] | Bacterial Biotransformation [18] | Bacterial Biotransformation [19] | Bacterial Biotransformation [20]
COc1cc2nc(N3CCN(C(=O)C4COc5ccccc5O4)CC3)nc(N)c2cc1OC.CS(=O)(=O)O (stereo not drawn) [DOXAZOSIN MESYLATE] | Compound NOT metabolized | Compound NOT metabolized | Compound NOT metabolized | Compound NOT metabolized | Compound NOT metabolized | Compound NOT metabolized | Compound NOT metabolized | Compound NOT metabolized | Compound NOT metabolized | Compound NOT metabolized | Compound NOT metabolized | Compound metabolized | Compound NOT metabolized | Compound metabolized | Compound NOT metabolized | Compound NOT metabolized | Compound NOT metabolized |  |  | 
C#C[C@]1(OC(C)=O)CC[C@H]2[C@@H]3CCC4=C/C(=N/O)CC[C@@H]4[C@H]3CC[C@@]21CC [NORGESTIMATE] | Compound NOT metabolized | Compound NOT metabolized | Compound NOT metabolized | Compound NOT metabolized | Compound NOT metabolized | Compound NOT metabolized | Compound NOT metabolized | Compound NOT metabolized | Compound NOT metabolized | Compound NOT metabolized | Compound NOT metabolized | Compound NOT metabolized | Compound NOT metabolized | Compound NOT metabolized | Compound NOT metabolized | Compound NOT metabolized | Compound NOT metabolized | Compound NOT metabolized |  | 
Cc1ccc(NC(=O)c2ccc(CN3CCN(C)CC3)cc2)cc1Nc1nccc(-c2cccnc2)n1 [IMATINIB] |  | Compound NOT metabolized | Compound NOT metabolized | Compound NOT metabolized |  | Compound NOT metabolized | Compound NOT metabolized |  | Compound NOT metabolized | Compound NOT metabolized | Compound NOT metabolized | Compound NOT metabolized | Compound NOT metabolized | Compound NOT metabolized | Compound NOT metabolized | Compound NOT metabolized | Compound NOT metabolized | Compound NOT metabolized |  | 
CC(CCc1ccccc1)NCC(O)c1ccc(O)c(C(N)=O)c1 (stereo not drawn) [LABETALOL] | Compound NOT metabolized | Compound NOT metabolized | Compound NOT metabolized |  | Compound NOT metabolized | Compound NOT metabolized | Compound NOT metabolized |  | Compound NOT metabolized | Compound NOT metabolized | Compound NOT metabolized | Compound NOT metabolized | Compound NOT metabolized |  | Compound NOT metabolized | Compound NOT metabolized | Compound NOT metabolized | Compound NOT metabolized | Compound NOT metabolized | Compound NOT metabolized
CC(=O)O[C@]1(C(C)=O)CC[C@H]2[C@@H]3C=C(C)C4=CC(=O)CC[C@]4(C)[C@H]3CC[C@@]21C [MEGESTROL ACETATE] | Compound metabolized | Compound NOT metabolized | Compound metabolized | Compound NOT metabolized | Compound metabolized | Compound NOT metabolized | Compound metabolized | Compound metabolized |  | Compound NOT metabolized | Compound metabolized | Compound NOT metabolized | Compound NOT metabolized | Compound metabolized | Compound NOT metabolized | Compound metabolized | Compound NOT metabolized | Compound NOT metabolized | Compound NOT metabolized | 
CCN(CC)CCNC(=O)c1cc(Cl)c(N)cc1OC [METOCLOPRAMIDE] | Compound NOT metabolized | Compound NOT metabolized | Compound NOT metabolized | Compound NOT metabolized | Compound NOT metabolized | Compound NOT metabolized | Compound NOT metabolized | Compound NOT metabolized | Compound NOT metabolized | Compound NOT metabolized | Compound NOT metabolized | Compound NOT metabolized | Compound NOT metabolized |  | Compound NOT metabolized | Compound NOT metabolized | Compound NOT metabolized | Compound NOT metabolized | Compound NOT metabolized | Compound NOT metabolized
COC(=O)Nc1nc2ccc(C(=O)c3ccccc3)cc2[nH]1 [MEBENDAZOLE] |  | Compound NOT metabolized |  | Compound NOT metabolized | Compound metabolized | Compound NOT metabolized |  | Compound NOT metabolized | Compound metabolized | Compound NOT metabolized | Compound metabolized |  | Compound NOT metabolized | Compound NOT metabolized | Compound NOT metabolized |  | Compound NOT metabolized | Compound NOT metabolized |  | 
C=CCN1CC[C@]23c4c5ccc(O)c4O[C@H]2C(=O)CC[C@@]3(O)[C@H]1C5 [NALOXONE] | Compound metabolized | Compound NOT metabolized | Compound metabolized | Compound NOT metabolized | Compound metabolized | Compound NOT metabolized | Compound NOT metabolized |  | Compound metabolized | Compound metabolized | Compound metabolized | Compound metabolized | Compound NOT metabolized |  | Compound NOT metabolized | Compound metabolized |  | Compound NOT metabolized | Compound metabolized | Compound metabolized
CCC(C)n1ncn(-c2ccc(N3CCN(c4ccc(OCC5COC(Cn6cncn6)(c6ccc(Cl)cc6Cl)O5)cc4)CC3)cc2)c1=O (stereo not drawn) [ITRACONAZOLE] | Compound NOT metabolized | Compound NOT metabolized | Compound NOT metabolized | Compound NOT metabolized | Compound NOT metabolized | Compound NOT metabolized | Compound NOT metabolized | Compound NOT metabolized | Compound NOT metabolized | Compound NOT metabolized | Compound NOT metabolized | Compound NOT metabolized | Compound NOT metabolized |  | Compound NOT metabolized | Compound NOT metabolized | Compound NOT metabolized | Compound NOT metabolized | Compound NOT metabolized | Compound NOT metabolized
